Laboratory results taken from patent EP2253620B1, “SUBSTITUTED 3-CYANOQUINOLINES AS PROTEIN TYROSINE KINASES INHIBITORS” (Wyeth Holdings LLC, priority 1998, dated 2000).
Values after ≈ are worked out from the molar mass of the structure shown.

Assays:
[1] = tested on: Human Epidermoid Tumors (A431); experiment: In Vivo Inhibition of the Growth of Human Epidermoid Tumors (A431) in mice; settings: for Relative Tumor Growth Day 7 / % T/C Day 7 / Relative Tumor Growth Day 14 / % T/C Day 14 / Relative Tumor Growth Day 21 / % T/C Day 21 / Relative Tumor Growth Day 28 / % T/C Day 28 / S/T (# of Survivors/# of Treated) / Relative Tumor Growth Day 20 / % T/C Day 20: days 1 through 10; for % T/C Day 7 / % T/C Day 14 / % T/C Day 21 / % T/C Day 28 / % T/C Day 20: * = p < 0.01; for S/T (# of Survivors/# of Treated): Day +28 post tumor staging
Protocol: In Vivo Inhibition of the Growth of Human Epidermoid Tumors (A431)
BALB/c nu/nu female mice (Charles River, Wilmington, MA) were used in the in vivo standard pharmacological test procedures. Human epidermoid carcinoma cells A-431 (American Type Culture Collection, Rockville, Maryland # CRL-155) were grown in vitro as described above. A unit of 5 X 10^6 cells were injected SC into mice. […] Control animals received no drug. […] […] The %T/C (Tumor/Control) is determined by dividing the relative tumor growth of the treated group by the relative tumor growth of the placebo group and multiplying by 100.

[2] = target: T1, epidermal growth factor receptor kinase (Homo sapiens, UniProt P00533); experiment: Inhibition of Epidermal Growth Factor Receptor Kinase (EGF-R) using recombinant enzyme; type: biochemical; settings: averages of the individual determinations
T1 construct: containing the EGFR cDNA encoding amino acids 645 - 1186 preceded by Met-Ala-(His)6; made in house; host or cells: Sf9 insect cells, recombinant baculovirus vHcEGFR52
Protocol: Representative test compounds were evaluated for their ability to inhibit the phosphorylation of the tyrosine residue of a peptide substrate catalyzed by the enzyme epidermal growth factor receptor kinase. […] The enzyme used in this assay is the His-tagged cytoplasmic domain of EGFR. A recombinant baculovirus (vHcEGFR52) was constructed containing the EGFR cDNA encoding amino acids 645 - 1186 preceded by Met-Ala-(His)6. Sf9 cells in 100 mm plates were infected at an moi of 10 pfu/cell and cells were harvested 48 h post infection. A cytoplasmic extract was prepared using 1% Triton X-100 and applied to Ni-NTA column. After washing the column with 20 mM imidazole, HcEGFR was eluted with 250 mM imidazole (in 50 mM Na2HPO4, pH 8.0, 300 mM NaCl). Fractions collected were dialyzed against 10 mM HEPES, pH 7.0, 50 mM NaCl, 10% glycerol, 1ug/mL antipain and leupeptin and 0.1 mM Pefabloc SC. The protein was frozen in dry ice/methanol and stored -70°C.
Test compounds were made into 10 mg/mL stock solutions in 100% dimethylsulfoxide (DMSO). Prior to experiment, stock solutions were diluted to 500 uM with 100% DMSO and then serially diluted to the desired concentration with HEPES buffer (30 mM HEPES pH 7.4).
For the enzyme reaction, 10 µL of each inhibitor (at various concentrations) were added to each well of a 96-well plate. To this was added 3 µL of enzyme (1:10 dilution in 10mM HEPES, pH 7.4 for final conc. of 1:120). This was allowed to sit for 10 min on ice and was followed by the addition of 5 µl peptide (80 µM final conc.), 10 µl of 4X Buffer (Table A), 0.25 µL ^33P-ATP and 12 µL H2O. The reaction was allowed to run for 90 min at room temperature and was followed by spotting the entire volume on to precut P81 filter papers. The filter discs were washed 2X with 0.5% phosphoric acid and radioactivity was measured using a liquid scintillation counter.
The % inhibition of the test compound was determined for at least three different concentrations and the IC50 value was evaluated from the dose response curve. […] CPM(control) is in units of counts per minute and was a number expressing the amount of radiolabled ATP (g-^33P) incorporated into the RR-SRC peptide substrate by the enzyme after 90 minutes at room temperature in the absence of test compound as measured by liquid scintillation counting. The CPM values were corrected for the background counts produced by ATP in the absence of the enzymatic reaction. The IC50 values in TABLE 1 are averages of the individual determinations.

3T3 = experiment: Inhibition of Cancer Cell Growth as Measured by Cell Number; type: cell-based; settings: 48 hours exposure, Sulforhodamine B; for IC50: Mus musculus, NIH3T3
Protocol: (§1) Inhibition of Cancer Cell Growth as Measured bv Cell Number
(§2) Human tumor cell lines were plated in 96-well plates (250 µl/well, 1-6 x 10^4 cells/ml) in RPMI 1640 medium, containing 5% FBS (Fetal Bovine Serum). […] After 48 hours exposure to test compounds, cells were fixed with trichloroacetic acid, and stained with Sulforhodamine B. After washing with trichloroacetic acid, bound dye was solubilized in 10 mM Tris base and optical density was determined using plate reader. Under conditions of the assay the optical density is proportional to the number of cells in the well. […] The test procedure is described in details by Philip Skehan et. al, J.Natl. Canc. Inst., 82, 1107-1112 (1990). […] Information about some of the cell lines used in these test procedures is available from the American Type Tissue Collection: Cell Lines and Hybridomas, 1994 Reference Guide, 8th Edition.

Her2/3T3 = experiment: as above; type: cell-based; settings: 48 hours exposure, Sulforhodamine B
Protocol: as §1, §2

SKBR3 = experiment: as above; type: cell-based, Human; settings: 48 hours exposure, Sulforhodamine B; for IC50: Homo sapiens, SK-BR-3
Protocol: as §1, §2

MDAMB435 = experiment: as above; type: cell-based, Human; settings: 48 hours exposure, Sulforhodamine B; for IC50: Homo sapiens, MDA-MB-435
Protocol: as §1, §2

A431 = experiment: as above; type: cell-based, Human; settings: 48 hours exposure, Sulforhodamine B; for IC50: Homo sapiens, A-431
Protocol: as §1, §2

SW620 = experiment: as above; type: cell-based, Human; settings: 48 hours exposure, Sulforhodamine B; for IC50: Homo sapiens, SW-620
Protocol: as §1, §2

T1 sequence (P00533 669-1210): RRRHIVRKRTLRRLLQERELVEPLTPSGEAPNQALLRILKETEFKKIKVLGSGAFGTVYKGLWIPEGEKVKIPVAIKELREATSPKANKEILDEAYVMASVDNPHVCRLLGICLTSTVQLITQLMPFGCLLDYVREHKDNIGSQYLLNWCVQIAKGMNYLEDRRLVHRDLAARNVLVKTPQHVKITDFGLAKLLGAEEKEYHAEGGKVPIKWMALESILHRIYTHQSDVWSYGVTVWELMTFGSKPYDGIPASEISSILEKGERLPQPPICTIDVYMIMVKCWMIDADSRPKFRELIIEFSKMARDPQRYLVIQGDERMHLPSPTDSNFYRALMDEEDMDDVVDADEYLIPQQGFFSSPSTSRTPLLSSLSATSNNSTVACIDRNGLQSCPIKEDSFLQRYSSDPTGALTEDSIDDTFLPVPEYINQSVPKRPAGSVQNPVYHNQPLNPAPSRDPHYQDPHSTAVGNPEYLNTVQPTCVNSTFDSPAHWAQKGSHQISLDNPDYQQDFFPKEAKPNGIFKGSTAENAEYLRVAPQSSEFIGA

For `COCCN(C)CC=CC(=O)Nc1cc2c(Nc3ccc(F)c(Cl)c3)c(C#N)cnc2cc1OC.Cl.Cl` [Example 89, 4-[(2-Methoxy-ethyl)-methyl-amino]-but-2-enoic acid [4-(3-chloro-4-fluoro-phenylamino)-3-cyano-7-methoxy-quinolin-6-yl]-amide dihydrochloride], the “Relative Tumor Growth Day 7” value ([1]; Table 5, 10 mg/kg/dose PO) was 2.09, the “% T/C Day 7” value ([1]; Table 5, 10 mg/kg/dose PO) was 50* % and the “Relative Tumor Growth Day 14” value ([1]; Table 5, 10 mg/kg/dose PO) was 3.37. The “% T/C Day 14” value ([1]; Table 5, 10 mg/kg/dose PO) was 32* %, the “Relative Tumor Growth Day 21” value ([1]; Table 5, 10 mg/kg/dose PO) was 5.76 and the “% T/C Day 21” value ([1]; Table 5, 10 mg/kg/dose PO) was 38* %. For the same compound, the “Relative Tumor Growth Day 28” value ([1]; Table 5, 10 mg/kg/dose PO) was 7.24, the “% T/C Day 28” value ([1]; Table 5, 10 mg/kg/dose PO) was 26* % and the “S/T (# of Survivors/# of Treated)” value ([1]; Table 5, 10 mg/kg/dose PO) was 4/5. For the same compound, the “Relative Tumor Growth Day 7” value ([1]; Table 5, 40 mg/kg/dose PO) was 0.49, the “% T/C Day 7” value ([1]; Table 5, 40 mg/kg/dose PO) was 11* % and the “Relative Tumor Growth Day 14” value ([1]; Table 5, 40 mg/kg/dose PO) was 0.58. The “% T/C Day 14” value ([1]; Table 5, 40 mg/kg/dose PO) was 6* %, the “Relative Tumor Growth Day 21” value ([1]; Table 5, 40 mg/kg/dose PO) was 3.11 and the “% T/C Day 21” value ([1]; Table 5, 40 mg/kg/dose PO) was 21* %. For the same compound, the “Relative Tumor Growth Day 28” value ([1]; Table 5, 40 mg/kg/dose PO) was 7.20, the “% T/C Day 28” value ([1]; Table 5, 40 mg/kg/dose PO) was 26* % and the “S/T (# of Survivors/# of Treated)” value ([1]; Table 5, 40 mg/kg/dose PO) was 5/5. The “inhibition of tumor growth in vivo” value ([1]; given orally at 40 mg/Kg and 10 mg/Kg) was “effective inhibitor of tumor growth in vivo”, the IC50 [2] was 10 nM and the IC50 (3T3) was 2.04 µg/mL. The IC50 (Her2/3T3) was 0.192 µg/mL, the IC50 (SKBR3) was 0.107 µg/mL and the IC50 (MDAMB435) was 2.07 µg/mL. It also gave an IC50 (A431) of 0.245 µg/mL and an IC50 (SW620) of 1.53 µg/mL.

`COC[C@@H]1CCCN1CC=CC(=O)Nc1cc2c(Nc3ccc(F)c(Cl)c3)c(C#N)cnc2cc1OC.Cl.Cl` [Example 90, (S)-4-(2-Methoxymethyl-pyrrolidin-1-yl)-but-2-enoic acid [4-(3-chloro-4-fluoro-phenylamino)-3-cyano-7-methoxy-quinolin-6-yl]-amide dihydrochloride] gave an IC50 (3T3) of 2.1 µg/mL, an IC50 (Her2/3T3) of 0.329 µg/mL and an IC50 (SKBR3) of 0.148 µg/mL. It also gave an IC50 (MDAMB435) of 1.74 µg/mL, an IC50 (A431) of 0.234 µg/mL and an IC50 (SW620) of 1.24 µg/mL.

For `COc1cc2ncc(C#N)c(Nc3ccc(F)c(Cl)c3)c2cc1NC(=O)C=CCN1CCCC(CO)C1.Cl` (stereo not shown) [Example 91, 4-(3-Hydroxymethyl-piperidin-1-yl)-but-2-enoic acid [4-(3-chloro-4-fluoro-phenylamino)-3-cyano-7-methoxy-quinolin-6-yl]-amide hydrochloride], the IC50 [2] was 15 nM, the IC50 (3T3) was 2.87 µg/mL and the IC50 (Her2/3T3) was 0.375 µg/mL. It also gave an IC50 (SKBR3) of 0.181 µg/mL, an IC50 (MDAMB435) of 1.83 µg/mL and an IC50 (A431) of 0.232 µg/mL. It also gave an IC50 (SW620) of 1.73 µg/mL.

`COc1cc2ncc(C#N)c(Nc3ccc(F)c(Cl)c3)c2cc1NC(=O)C=CCN1CCC2(CC1)OCCO2` [Example 92, 4-(1,4-Dioxa-8-aza-spiror[4.5]dec-8-yl)-but-2-enoic acid [4-(3-chloro-4-fluoro-phenylamino)-3-cvano-7-methox-quinolin-6-yl]-amide] was tested, and the “Relative Tumor Growth Day 7” value ([1]; Table 4, 10 mg/kg/dose PO) was 3.94, the “% T/C Day 7” value ([1]; Table 4, 10 mg/kg/dose PO) was 72% and the “Relative Tumor Growth Day 14” value ([1]; Table 4, 10 mg/kg/dose PO) was 10.41. For the same compound, the “% T/C Day 14” value ([1]; Table 4, 10 mg/kg/dose PO) was 100%, the “Relative Tumor Growth Day 20” value ([1]; Table 4, 10 mg/kg/dose PO) was 14.76 and the “% T/C Day 20” value ([1]; Table 4, 10 mg/kg/dose PO) was 119%. The “Relative Tumor Growth Day 28” value ([1]; Table 4, 10 mg/kg/dose PO) was 22.51, the “% T/C Day 28” value ([1]; Table 4, 10 mg/kg/dose PO) was 159% and the “S/T (# of Survivors/# of Treated)” value ([1]; Table 4, 10 mg/kg/dose PO) was 5/5. For the same compound, the “Relative Tumor Growth Day 7” value ([1]; Table 4, 40 mg/kg/dose PO) was 1.49, the “% T/C Day 7” value ([1]; Table 4, 40 mg/kg/dose PO) was 27* % and the “Relative Tumor Growth Day 14” value ([1]; Table 4, 40 mg/kg/dose PO) was 1.58. The “% T/C Day 14” value ([1]; Table 4, 40 mg/kg/dose PO) was 15* %, the “Relative Tumor Growth Day 20” value ([1]; Table 4, 40 mg/kg/dose PO) was 2.60 and the “% T/C Day 20” value ([1]; Table 4, 40 mg/kg/dose PO) was 21* %. The “Relative Tumor Growth Day 28” value ([1]; Table 4, 40 mg/kg/dose PO) was 6.22, the “% T/C Day 28” value ([1]; Table 4, 40 mg/kg/dose PO) was 44% and the “S/T (# of Survivors/# of Treated)” value ([1]; Table 4, 40 mg/kg/dose PO) was 5/5. For the same compound, the “inhibition of tumor growth in vivo” value ([1]; given orally at 40 mg/Kg) was “effective inhibitor of tumor growth in vivo”, the “IC50 3T3” value (3T3) was 2.79 µg/mL (≈ 5.05 µM) and the “IC50 Her2/3T3” value (Her2/3T3) was 0.35 µg/mL (≈ 0.634 µM). The “IC50 SKBR3” value (SKBR3) was 0.188 µg/mL (≈ 0.341 µM), the “IC50 MDAMB435” value (MDAMB435) was 3.32 µg/mL (≈ 6.01 µM) and the “IC50 A431” value (A431) was 0.283 µg/mL (≈ 0.513 µM). The “IC50 SW620” value (SW620) was 2.51 µg/mL (≈ 4.55 µM).
